Results published in US11111243B2, “Azaindole compounds as histone methyltransferase inhibitors” (GLOBAL BLOOD THERAPEUTICS, INC., priority 2017, dated 2021).
Where a name gives a salt, the structure may show the parent alone.

Legend:
[1] = tested on: bone marrow CD34+ hematopoietic cells; conditions: human
Method: Cryopreserved bone marrow CD34^+ hematopoietic cells obtained from healthy adult human donors were used for all studies. A 21 day ex vivo serum free culture system was utilized that consists of two phases. In culture phase I (culture days 1-7), CD34^+ cells were placed in media containing StemPro-34 complete media (1-glutamine, pen-strep and StemPro-34 nutrient supplement) (Invitrogen, Carlsbad, Calif.) supplemented with 50 ng/mL SCF (HumanZyme, Chicago, Ill.), 50 ng/mL FLT3-Ligand (HumanZyme) and 10 ng/mL IL-3 (HumanZyme). During the first phase of culture (days 0-7), the CD34^+ cells differentiate into progenitor cell populations that include erythroblasts. After 7 days, the cells were transferred to erythropoietin (EPO; Stemcell) supplemented medium (phase 2; culture days 7-21) which is comprised of the following: StemPro-34 complete medium, 4 U/mL EPO, 3 μM mifepristone (Sigma Aldrich, St. Louis, Mo.), 10 μg/mL insulin (Sigma Aldrich), 3 U/mL heparin (Sigma Aldrich) and 0.8 mg/mL holo transferrin (Sigma Aldrich). […]
Expression levels of α-, β- and γ-globin genes are assessed by quantitative PCR analyses. HbF protein levels are assessed by the human Hemoglobin F enzyme-linked immunosorbent assay (ELISA) Quantitation Kit (Bethyl Laboratory, Montgomery, Tex., USA). Percentages of cells expressing HbF are assessed by flow cytometry analysis. […]

G9a = target: T1, G9a (Homo sapiens, UniProt Q96KQ7); assay: G9a AlphaLISA enzymatic activity assay; format: biochemical; conditions: 0.15 nM G9a, 10 uM S-adenosyl-methionine, 100 nM biotinylated histone 3 peptide (1-21), 1 h room temperature
T1 sequence (Q96KQ7 1-1210): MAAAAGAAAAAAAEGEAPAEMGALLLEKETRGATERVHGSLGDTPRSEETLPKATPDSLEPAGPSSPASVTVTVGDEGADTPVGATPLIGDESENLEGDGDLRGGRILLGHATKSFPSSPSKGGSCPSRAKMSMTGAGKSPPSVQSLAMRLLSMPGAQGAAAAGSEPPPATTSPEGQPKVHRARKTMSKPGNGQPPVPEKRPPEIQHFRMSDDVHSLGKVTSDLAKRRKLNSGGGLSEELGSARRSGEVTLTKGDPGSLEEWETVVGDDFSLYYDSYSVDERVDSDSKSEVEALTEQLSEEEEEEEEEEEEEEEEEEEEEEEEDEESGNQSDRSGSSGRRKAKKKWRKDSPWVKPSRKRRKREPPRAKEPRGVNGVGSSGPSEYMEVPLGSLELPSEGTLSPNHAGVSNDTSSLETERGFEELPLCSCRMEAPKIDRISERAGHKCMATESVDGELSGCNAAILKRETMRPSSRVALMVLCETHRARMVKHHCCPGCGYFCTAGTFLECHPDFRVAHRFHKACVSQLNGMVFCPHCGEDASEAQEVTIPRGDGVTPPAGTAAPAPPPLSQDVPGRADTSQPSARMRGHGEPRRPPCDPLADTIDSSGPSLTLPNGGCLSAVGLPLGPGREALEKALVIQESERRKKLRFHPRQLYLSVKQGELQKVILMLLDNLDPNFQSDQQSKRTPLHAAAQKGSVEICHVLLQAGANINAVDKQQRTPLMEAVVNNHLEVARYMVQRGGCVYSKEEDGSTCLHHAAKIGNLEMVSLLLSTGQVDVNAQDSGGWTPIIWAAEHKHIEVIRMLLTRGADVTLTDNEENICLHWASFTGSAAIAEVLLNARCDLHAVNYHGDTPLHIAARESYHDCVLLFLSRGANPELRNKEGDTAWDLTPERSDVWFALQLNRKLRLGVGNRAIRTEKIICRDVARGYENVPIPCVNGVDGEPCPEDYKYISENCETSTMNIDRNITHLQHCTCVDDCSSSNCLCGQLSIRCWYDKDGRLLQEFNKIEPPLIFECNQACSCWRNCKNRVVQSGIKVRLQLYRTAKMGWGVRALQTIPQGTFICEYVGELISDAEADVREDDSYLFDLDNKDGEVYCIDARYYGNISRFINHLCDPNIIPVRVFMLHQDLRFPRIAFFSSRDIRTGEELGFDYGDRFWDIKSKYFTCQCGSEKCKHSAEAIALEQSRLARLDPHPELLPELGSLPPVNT
Procedure, shortened: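 Reaction of 0.15 nM G9a with 10 uM SAM and 100 nM biotinylated histone H3 (1-21) peptide in 50 mM Tris-HCl pH9, 50 mM NaCl, 0.01% Tween-20, 1 mM DTT, 1 h at room temperature. H3K9me2 detected by AlphaLISA (anti-H3K9me2 acceptor, streptavidin donor beads, 615 nm); IC50 from percent inhibition across dilutions.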

SMILES	Fold Induction [1] [fold]	IC50 (G9a) [nM]
COc1cc2c(cc1OCCCN1CCCC1)[nH]c1ccnc(C3=CCNCC3)c12 [Compound 66, 4-{8-methoxy-7-[3-(pyrrolidin-1-yl)propoxy]-5H-pyrido[4,3-b]indol-1-yl}-1,2,3,6-tetrahydropyridine bishydrochloride]	1.3	5.6
COc1cc2c(cc1OCCCN1CCCC1)[nH]c1cc(C3CC3)ncc12 [Compound 101, 1-[3-({3-cyclopropyl-8-methoxy-5H-pyrido[4,3-b]indol-7-yl}oxy)propyl]pyrrolidine hydrochloride]	–	120
CCN(CC)CCCOc1cc2[nH]c3ccnc(C4CC4)c3c2cc1OC [Compound 102, [3-({1-cyclopropyl-8-methoxy-5H-pyrido[4,3-b]indol-7-yl}oxy)propyl]diethylamine hydrochloride]	–	140
